Columns and labels:
EP3 receptor = target: T1, EP3 receptor (UniProt A0A286XLZ9); assay: EP3-activity: inhibition of the twitch response induced by electrical field stimulation in the isolated guinea pig vas deferens; assay type: cell-based; conditions: pa = printed beside some values, read-out: EC50 (nM) EP3, first value of the cell
T1 sequence (A0A286XLZ9 1-363): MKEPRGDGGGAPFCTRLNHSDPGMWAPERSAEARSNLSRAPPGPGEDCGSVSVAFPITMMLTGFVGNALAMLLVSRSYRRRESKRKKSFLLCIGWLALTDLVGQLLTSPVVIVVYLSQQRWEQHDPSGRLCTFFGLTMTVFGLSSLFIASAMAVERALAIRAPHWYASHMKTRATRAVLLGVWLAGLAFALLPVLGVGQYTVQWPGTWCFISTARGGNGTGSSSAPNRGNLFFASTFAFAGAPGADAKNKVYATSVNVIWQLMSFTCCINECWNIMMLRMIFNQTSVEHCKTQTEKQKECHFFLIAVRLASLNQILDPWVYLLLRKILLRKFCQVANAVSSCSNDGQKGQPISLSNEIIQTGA
Experimental: (§1) Activity at different prostanoid receptors was measured in vitro in isolated smooth muscle preparations. FP-activity was measured as contraction of the isolated feline iris sphincter. EP1-activity was measured as contraction of the longitudinal smooth muscle of the isolated guinea pig ileum. EP3-activity was measured as inhibition of the twitch response induced by electrical field stimulation in the isolated guinea pig was deferens and as contraction of the longitudinal smooth muscle of the isolated chick ileum. Activity was also measured as relaxation of smooth muscle of isolated rabbit jugular vein a preparation which appears to contain a unique PGF2α-sensitive receptor provisionally termed FPVASC. TP-vasoconstrictor activity was measured as contraction of rings of the isolated rat thoracic aorta. Effects on platelets from healthy human donors were measured by incubating platelet-rich plasma with the compounds described herein. Inhibition of aggregation was determined by the ability of the compounds described herein to inhibit platelet aggregation in platelet-rich plasma induced by 20 μM ADP.

EP1 receptor = target: T2, EP1 receptor (Cavia porcellus, UniProt A0A286XHJ6); assay: EP1-activity: contraction of the longitudinal smooth muscle of the isolated guinea pig ileum; assay type: cell-based
T2 sequence (A0A286XHJ6 1-405): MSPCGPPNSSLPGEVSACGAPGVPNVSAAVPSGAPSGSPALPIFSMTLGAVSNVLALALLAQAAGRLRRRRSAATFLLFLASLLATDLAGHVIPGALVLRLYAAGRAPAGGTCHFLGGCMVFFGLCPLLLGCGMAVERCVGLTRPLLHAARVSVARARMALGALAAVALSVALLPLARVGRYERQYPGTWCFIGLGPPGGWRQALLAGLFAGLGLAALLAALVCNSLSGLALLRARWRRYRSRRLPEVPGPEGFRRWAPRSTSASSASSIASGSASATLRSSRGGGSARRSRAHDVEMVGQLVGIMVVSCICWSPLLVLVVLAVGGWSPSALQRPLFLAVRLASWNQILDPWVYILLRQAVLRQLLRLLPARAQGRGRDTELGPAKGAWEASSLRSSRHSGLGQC
Experimental: as §1

TP receptor = target: T3, TP receptor (Rattus norvegicus, UniProt P34978); assay: TP-vasoconstrictor activity: contraction of rings of the isolated rat thoracic aorta; assay type: cell-based; conditions: isolated rat thoracic aorta contraction; read-out: EC50 (nM) TP
T3 construct: rings of the isolated rat thoracic aorta; from tissue; host or cells: isolated rat thoracic aorta rings
T3 sequence (P34978 1-341): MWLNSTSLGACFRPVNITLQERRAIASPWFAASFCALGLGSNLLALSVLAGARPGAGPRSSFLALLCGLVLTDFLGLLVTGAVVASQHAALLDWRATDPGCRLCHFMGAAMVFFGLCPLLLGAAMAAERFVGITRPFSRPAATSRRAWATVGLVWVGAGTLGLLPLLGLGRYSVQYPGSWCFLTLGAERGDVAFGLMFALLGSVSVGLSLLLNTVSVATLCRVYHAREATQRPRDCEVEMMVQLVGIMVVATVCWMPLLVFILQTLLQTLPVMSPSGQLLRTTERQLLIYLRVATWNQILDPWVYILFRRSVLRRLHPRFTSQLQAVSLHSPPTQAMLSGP
Experimental: as §1

[1] = tested on: PGF2α-sensitive receptor provisionally termed FPVASC; assay: Relaxation of smooth muscle of isolated rabbit jugular vein; assay type: cell-based; conditions: isolated rabbit jugular vein relaxation; read-out: EC50 (nM) FPVASC
Experimental: as §1

Dog eye (miosis) = assay: Miosis in dogs after topical dosing; assay type: in vivo
Dog eye (hyperemia) = assay: Ocular surface hyperemia in dogs after topical dosing; assay type: in vivo; parameters: scale not given here
Dog intraocular pressure = Dog intraocular pressure by applanation pneumatonometry; assay type: in vivo; conditions: dogs
Experimental: The compounds were prepared at the said concentrations in a vehicle comprising 0.1% polysorbate 80 and 10 mM TRIS base. Dogs were treated by administering 25 μl to the ocular surface, the contralateral eye received vehicle as a control. Intraocular pressure was measured by applanation pneumatonometry. Dog intraocular pressure was measured immediately before drug administration and at 6 hours thereafter.

Row | SMILES | EC50 (EP3 receptor) | EC50 (EP1 receptor) | EC50 (TP receptor) | EC50 [1] | Miosis (Dog eye (miosis); 0.1%) | Hyp (hyperemia score) (Dog eye (hyperemia); 0.1%) | ocular hypotensive effect (in words) (Dog intraocular pressure) | Miosis (Dog eye (miosis); 0.01%) | Hyp (hyperemia score) (Dog eye (hyperemia); 0.01%)
1 | O=C(O)CCC/C=C\C[C@@H]1[C@@H](CC[C@@H](O)CCc2ccsc2)[C@H](O)C[C@@H]1O | 105 nM | > 10000 nM | 4740 nM | 545 nM | – | – | – | – | –
2 | O=C(O)CCC/C=C\C[C@@H]1[C@@H](/C=C/[C@@H](O)CCc2cc3ccccc3s2)[C@H](O)C[C@@H]1O | ~10000 nM | – | – | 2660 nM | – | – | – | – | –
3 | CO[C@H](/C=C/[C@@H]1[C@@H](C/C=C\CCCC(=O)O)[C@@H](O)C[C@H]1O)CCc1ccsc1 | 189 nM | > 10000 nM | ~10000 nM | 2.1 nM | pinpt | 0.83 | – | – | –
4 | NC(=O)CCC/C=C\CC1C(O)CC(O)C1/C=C/C(O)CCc1scc(Br)c1Br (centres unmarked) [Compound 8v] | – | – | – | – | – | – | pronounced ocular hypotensive effect | – | –
5 | O=C(O)CCC/C=C\C[C@@H]1[C@@H](/C=C/[C@@H](O)CCc2ccsc2)[C@H](O)C[C@@H]1O [drawing 12] | 400 nM | 2000 nM | 2460 nM | 9.2 nM | pinpoint | 0.6 | – | – | –
6 | O=C(O)CCC/C=C\C[C@@H]1[C@@H](/C=C/[C@@H](O)CCc2nccs2)[C@H](O)C[C@@H]1O | – | – | – | 1000 nM | pinpoint | 0.6 | – | – | –
7 | Cc1cc(CC[C@H](O)/C=C/[C@@H]2[C@@H](C/C=C\CCCC(=O)O)[C@@H](O)C[C@H]2O)cs1 | 305 nM | > 10000 nM | ~10000 nM | > 7140 nM | pinpt | 1.38 | – | pinpt | 0.42
8 | NC(=O)CCC/C=C\C[C@@H]1[C@@H](/C=C/[C@H](O)CCc2ccsc2)[C@H](O)C[C@@H]1O | – | – | – | – | pin | 0.72 | – | – | –
9 | O=C(O)CCC/C=C\C[C@@H]1[C@@H](/C=C/[C@@H](O)CCc2cc3ccccc3o2)[C@H](O)C[C@@H]1O | 9000 nM | – | – | > 69000 nM | 0 | 0.13 | – | 0 | 0.17
10 | O=C(O)CCC/C=C\C[C@@H]1[C@@H](/C=C/[C@H](O)CCc2cccs2)[C@H](O)C[C@@H]1O | > 10000 nM | > 10000 nM | > 10000 nM | 31 nM | pinpt | 0.79 | – | – | –
11 | O=C(O)CCC/C=C\C[C@@H]1[C@@H](/C=C/[C@@H](O)CCc2ccsc2)[C@H](O)C[C@@H]1O [Compound 4p, 7-[3α,5α-Dihydroxy-2-(3α-hydroxy-5-(3-thienyl)-1E-pentenyl)cyclopentyl]-5Z-heptenoic acid] | – | – | – | – | – | – | excellent ability to lower intraocular pressure | – | –
12 | O=C(O)CCC/C=C\C[C@@H]1[C@@H](/C=C/[C@@H](O)CCc2cc(Cl)sc2Cl)[C@H](O)C[C@@H]1O [drawing 28] | > 10000 nM | > 10000 nM | 2300 nM | 7.7 nM | pinpt | 0.5 | – | – | –
13 | NC(=O)CCC/C=C\C[C@@H]1[C@@H](/C=C/[C@@H](O)CCc2ccsc2)[C@H](O)C[C@@H]1O | > 10000 nM | > 10000 nM | > 10000 nM | 3.6 nM | – | – | – | – | –
14 | O=C(O)CCC/C=C\C[C@@H]1[C@@H](/C=C/[C@@H](O)CCc2ccoc2)[C@H](O)C[C@@H]1O | 83 nM | > 10000 nM | 5400 nM | – | pinpoint | 0.38 | – | mild | 0.83
15 | O=C(O)CCC/C=C\C[C@@H]1[C@@H](/C=C/[C@@H](O)CCc2sccc2Cl)[C@H](O)C[C@@H]1O | – | > 10000 nM | 3530 nM | 122 nM | – | – | – | – | –
16 | O=C(O)CCC/C=C\C[C@@H]1[C@@H](/C=C/[C@@H](O)CCc2ccsc2Cl)[C@H](O)C[C@@H]1O | 1000 nM | > 10000 nM | 2450 nM | 47 nM | pinpoint | 1.13 | – | – | –
17 | NC(=O)CCC/C=C\C[C@@H]1[C@@H](/C=C/[C@@H](O)CCc2cc(Cl)sc2Cl)[C@H](O)C[C@@H]1O | – | – | > 10000 nM | 82 nM | pinpoint | 1.2 | – | – | –
18 | O=C(O)CCC/C=C\C[C@@H]1[C@@H](/C=C/[C@@H](O)CCc2ccc(Br)s2)[C@H](O)C[C@@H]1O | 36 nM | > 10000 nM | 5080 nM | 8.5 nM | pinpoint | 1.0 | – | – | –
19 | Cc1sccc1CC[C@H](O)/C=C/[C@@H]1[C@@H](C/C=C\CCCC(=O)O)[C@@H](O)C[C@H]1O | 355 nM | > 10000 nM | 3980 nM | > 833 nM | – | – | – | – | –
20 | O=C(O)CCC/C=C\C[C@@H]1[C@@H](/C=C/[C@@H](O)CCc2cccs2)[C@H](O)C[C@@H]1O | 43 nM | > 10000 nM | 4010 nM | 20 nM | pinpt | 0.38 | – | – | –
21 | O=C(O)CCC/C=C\C[C@@H]1[C@@H](/C=C/[C@@H](O)CCc2cc(Br)cs2)[C@H](O)C[C@@H]1O | 50 nM | > 10000 nM | 371 nM | 16 nM | – | – | – | – | –
22 | Cc1ccc(CC[C@H](O)/C=C/[C@@H]2[C@@H](C/C=C\CCCC(=O)O)[C@@H](O)C[C@H]2O)s1 | 341 nM | > 10000 nM | > 10000 nM | > 7690 nM | – | – | – | – | –
23 | O=C(O)CCC/C=C\C[C@@H]1[C@@H](/C=C/[C@@H](O)CCc2ccco2)[C@H](O)C[C@@H]1O | 44 nM | > 10000 nM | ~10000 nM | > 7690 nM | pinpoint | 0.67 | – | mild | 0.54

— patent US6602900B2, “Cyclopentane heptan(ENE)oic acid, 2-heteroarylalkenyl derivatives as therapeutic agents” (Allergan, Inc., priority 1992, dated 2003)
